{"source": "patent US11246858B2", "about": "“Immunoresponsive methods of treating tumors” (Institut Pasteur de Montevideo, priority 2017, dated 2022)", "key": {"[1]": {"test_system": "IL-1β secretion", "assay": "IL-1β secretion by LPS-primed, stimulated WT and TORID KO BMDCs (ELISA)", "assay_type": "cell-based, mouse", "conditions": "for IL-1β secretion: WT and TORID KO BMDCs primed with LPS, stimulated with ATP", "method": "The study shown in FIG. 8 was performed by priming WT and TORID KO mice bone marrow-derived dendritic cells (BMDCs) with 0.25 μg/mL lipopolysaccharide (LPS) for four hours. The BMDCs were then washed and treated with different doses of ATP, Nigericin, and aluminum for 45 minutes as shown in the left column of bar graphs. Alternatively, 0.5 mg/mL ATP, 2.5 μg/mL Nigericin, or 500 μg/mL aluminum were used at different time points as indicated in the right column of bar graphs. IL-1β was quantified by ELISA in the culture supernatant.\nThe experiment was performed on wildtype and TORID KO mice BMDCs primed with LPS for 3 hours. The BMDCs were subsequently treated with nigericin, ATP, or aluminum for 45 minutes. […] Caspase 1 activation was quantified by FACS using Flica 1 reagent. […] Z-WEHD-FMK was used as the caspase 1 inhibitor, and IL-1β levels were quantified by ELISA in the supernatant of the cell culture stimulated with the indicated compounds.\nInflammasome activation is also associated with an increase of cytosolic Ca^2+. […] Data in this study was generated by loading Ca^2+ sensitive probe Fura-2 in wild type and TORID KO mice BMDCs after priming the BMDCs for three hours with LPS. The cells were exposed to 0.5 mM ATP to elicit inflammasome activation. The cells were excited with a UV laser at 350 nm. Absorbance at 340 nm and 380 nm were recorded in a time lapse manner. As shown in the top illustrations, the TORID KO BMDCs show a higher level of cytosolic Ca^2+. Moreover, IL-1β levels were higher with the TORID KO BMDCs. BAPTA-AM was used to chelate cytosolic Ca^2+.\nPotassium (K^+) efflux is also linked to inflammasome activation. In the study shown in FIG. 11, IL-1β synthesis resulting from K^+ was tested. This study was performed on wild type and TORID KO mouse BMDCs treated with LPS and ATP as in the previously described studies herein. Culture medium was replaced by saline buffer containing normal low levels of K^+ (5 mM, K+) or high levels of K^+ (120 mM; K+++). IL-1β was quantified by ELISA in the culture supernatant. As shown in the top graph of FIG. 11, IL-1β levels were higher in the TORID KO mice. […] The results therefore support pharmacological use of TIs to promote inflammasome activation by triggering Ca^2+-activated K^+ channels."}, "[2]": {"test_system": "TORID", "assay": "TORID activity by ANG-2 probe fluorescence (flow cytometry) in transfected CHO cells", "assay_type": "cell-based", "method": "As shown in FIG. 14 Chinese hamster ovarian (CHO) cells were transfected with TORID and Tmem176a and incubated for 24 hours. The cells were subsequently loaded with ANG-2 probe for 30 min RT, washed, and then incubated with (+)-BAY […] or (i)-BAY […] for 30 min. The cells were then analyzed by flow cytometry to evaluate TORID activity. Activity was measured by comparing fluorescence of the ANG-2 probe in TORID+ cells incubated with BAY […] (blue) to the control (red). TORID activity measure as the ANG-2 mean fluorescent intensity (MFI) in normal medium 0(-), 5(+), or 10(++) uM. […] FIG. 15 illustrates analysis of the ANG-2 mean fluorescent intensity (MFI) in normal medium of TORID exposed to BAY […] concentrations of 0 uM (-), 5 uM (+) or 10 uM (++). […] In all cases fluorescence intensity from ANG-2-loaded cells cultured in […] buffer was subtracted."}, "[3]": {"test_system": "EG7.OVA cancer cells", "assay": "EG7.OVA tumor-bearing wild type mice treated with BAY K8644", "assay_type": "in vivo", "conditions": "EG7.OVA s.c., i.p. daily day 3 to day 15, vs control vehicle", "method": "Data from in vivo studies depicted in FIG. 16 confirm the effect of pharmacologic inhibition of TORID on tumor growth. The study was performed on wild type mice injected subcutaneously with EG7.OVA cancer cells. Three days after inoculating the wild type mice with EG7.OVA tumor cells, Bay K8644 or a control vehicle, such as ethanol, were injected intraperitoneally daily up to the fifteenth day after tumor cell inoculation."}, "[4]": {"test_system": "EG7.OVA cells", "assay": "EG7.OVA tumor in caspase 1/11 active and caspase 1/11 KO mice treated with BAY K8644", "assay_type": "in vivo", "conditions": "4 mg/kg i.p. daily day 3 to day 15", "text": "FIG. 17 further confirms the results from FIG. 16 and the proposed mechanism depicted in FIG. 6. Data shown in FIG. 17 was gathered from caspase 1/11 active mice (1/11^+/+) and caspase 1/11 KO mice (1/11^−/−) injected with EG7.OVA cells."}, "[5]": {"test_system": "EG7 and MC38 tumors", "assay": "Survival of mice with EG7 and MC38 tumors treated with anti-PD-1 alone or anti-PD-1+Bayk8644", "assay_type": "in vivo", "conditions": "anti-PD-1 resistant mice; two tumor types (EG7, MC38); anti-PD-1+BAY K8644 vs anti-PD-1 alone"}}, "note": "* marks the point of attachment. Cbz = O=C(OCc1ccccc1)*; CH2F = FC*"}
{"molecule": "CC(=O)OCOC(=O)CN(CC(=O)OCOC(C)=O)c1ccccc1OCCOc1ccccc1N(CC(=O)OCOC(C)=O)CC(=O)OCOC(C)=O", "note": "[BAPTA-AM]", "values": [{"measurement": "IL-1β secretion", "setting": "[1]", "value": "completely blocked IL-1β secretion"}]}
{"molecule": "COC(=O)C1=C(C)NC(C)=C([N+](=O)[O-])C1c1ccccc1C(F)(F)F", "note": "(stereo not shown) [BAY K8644, Methyl 2,6-dimethyl-5-nitro-4-[2-(trifluoromethyl)phenyl]-1,4-dihydropyridine-3-carboxylate]", "values": [{"measurement": "TORID activity versus BAY K8644 concentration", "setting": "[2]; 0, 5 or 10 uM in normal medium, Na-free buffer signal subtracted", "value": "dose proportional response"}, {"measurement": "TORID activity (ANG-2 mean fluorescent intensity)", "setting": "[2]; CHO cells transfected with TORID and Tmem176a, 30 min incubation, vs control", "value": "inhibits TORID activity"}, {"measurement": "disease-free survival rates", "setting": "[3]", "value": "increased"}, {"measurement": "overall rates of survival vs negative control group not injected", "setting": "[4]", "value": "higher"}, {"measurement": "survival rate in caspase 1/11 KO vs caspase 1/11 active mice", "setting": "[4]", "value": "lowered the survival rate"}, {"measurement": "rate of survival", "setting": "[5]", "value": "higher rate of survival"}]}
{"molecule": "CCN(CCO)CCCC(C)Nc1ccnc2cc(Cl)ccc12", "note": "(stereo not shown) [HCQ, hydroxychloroquine]", "values": [{"measurement": "IL-1β secretion", "setting": "[1]", "value": "mimicked iberiotoxin in controlling IL-1β secretion"}]}
{"molecule": "Cbz-WEHD-CH2F", "values": [{"measurement": "IL-1β levels in culture supernatant", "setting": "[1]; BMDCs primed with LPS 3 hours, then nigericin, ATP or aluminum, caspase 1 inhibition", "value": "lower levels of IL-1β"}]}
{"molecule": "iberiotoxin: BKCa KCa1.1 specific inhibitor (QFTDVDCSVSKECWSVCKDLFGVDRGKCMGKKCRCYQ; UniProt P24663 1-37, looked up)", "values": [{"measurement": "IL-1β secretion", "setting": "[1]", "value": "blocked IL-1beta secretion"}]}
